Measurements from patent US9023878B2 (Neurophyxia B.V., priority 2010, dated 2015).

Legend:
[1] = Surfactants: stepwise solubility in surfactant solutions in 5% dextrose; assay type: physicochemical; details: nominal 1.6 mg/ml, without addition of acid
Experimental: Stock solutions of the surfactant were prepared in 5% dextrose.

piglets = details: versus allopurinol or deferoxamine; cited from earlier work

N=C1N[C@H]2[C@H](CS[C@H]2CCCCC(=O)O)N1 [Formulation 2-IB, 2-iminobiotin]
solubility, visually judged [1]: did not dissolve in any of the surfactant solutions
effectiveness in preventing and/or treating effects of perinatal asphyxia (piglets): more effective
